Source: patent US20090215025A1, “SMALL PEPTIDIC AND PEPTIDO-MIMETIC AFFINITY LIGANDS FOR FACTOR VIII AND FACTOR VIII-LIKE PROTEINS” (TECHNISCHE UNIVERSITAT MUNCHEN, priority 2005, published 2009)
[ ]: non-standard residue; d: D form. Bpa = N[C@@H](Cc1ccc(C(=O)c2ccccc2)cc1)C(=O)O; 1Nal = N[C@@H](Cc1cccc2ccccc12)C(=O)O; 2Nal = N[C@@H](Cc1ccc2ccccc2c1)C(=O)O

Key:
[1] = target: T1, plasma-derived (pd-) human Factor VIII (FVIII) (Homo sapiens, UniProt P00451); assay: Binding of 125I-labeled pd-FVIII to peptides immobilized on Toyopearl AF-Epoxy-650M resin (micro-beads assay)
T1 construct: from tissue; host or cells: human blood plasma (FVIII concentrate)
T1 sequence (P00451 20-1667 limits assumed): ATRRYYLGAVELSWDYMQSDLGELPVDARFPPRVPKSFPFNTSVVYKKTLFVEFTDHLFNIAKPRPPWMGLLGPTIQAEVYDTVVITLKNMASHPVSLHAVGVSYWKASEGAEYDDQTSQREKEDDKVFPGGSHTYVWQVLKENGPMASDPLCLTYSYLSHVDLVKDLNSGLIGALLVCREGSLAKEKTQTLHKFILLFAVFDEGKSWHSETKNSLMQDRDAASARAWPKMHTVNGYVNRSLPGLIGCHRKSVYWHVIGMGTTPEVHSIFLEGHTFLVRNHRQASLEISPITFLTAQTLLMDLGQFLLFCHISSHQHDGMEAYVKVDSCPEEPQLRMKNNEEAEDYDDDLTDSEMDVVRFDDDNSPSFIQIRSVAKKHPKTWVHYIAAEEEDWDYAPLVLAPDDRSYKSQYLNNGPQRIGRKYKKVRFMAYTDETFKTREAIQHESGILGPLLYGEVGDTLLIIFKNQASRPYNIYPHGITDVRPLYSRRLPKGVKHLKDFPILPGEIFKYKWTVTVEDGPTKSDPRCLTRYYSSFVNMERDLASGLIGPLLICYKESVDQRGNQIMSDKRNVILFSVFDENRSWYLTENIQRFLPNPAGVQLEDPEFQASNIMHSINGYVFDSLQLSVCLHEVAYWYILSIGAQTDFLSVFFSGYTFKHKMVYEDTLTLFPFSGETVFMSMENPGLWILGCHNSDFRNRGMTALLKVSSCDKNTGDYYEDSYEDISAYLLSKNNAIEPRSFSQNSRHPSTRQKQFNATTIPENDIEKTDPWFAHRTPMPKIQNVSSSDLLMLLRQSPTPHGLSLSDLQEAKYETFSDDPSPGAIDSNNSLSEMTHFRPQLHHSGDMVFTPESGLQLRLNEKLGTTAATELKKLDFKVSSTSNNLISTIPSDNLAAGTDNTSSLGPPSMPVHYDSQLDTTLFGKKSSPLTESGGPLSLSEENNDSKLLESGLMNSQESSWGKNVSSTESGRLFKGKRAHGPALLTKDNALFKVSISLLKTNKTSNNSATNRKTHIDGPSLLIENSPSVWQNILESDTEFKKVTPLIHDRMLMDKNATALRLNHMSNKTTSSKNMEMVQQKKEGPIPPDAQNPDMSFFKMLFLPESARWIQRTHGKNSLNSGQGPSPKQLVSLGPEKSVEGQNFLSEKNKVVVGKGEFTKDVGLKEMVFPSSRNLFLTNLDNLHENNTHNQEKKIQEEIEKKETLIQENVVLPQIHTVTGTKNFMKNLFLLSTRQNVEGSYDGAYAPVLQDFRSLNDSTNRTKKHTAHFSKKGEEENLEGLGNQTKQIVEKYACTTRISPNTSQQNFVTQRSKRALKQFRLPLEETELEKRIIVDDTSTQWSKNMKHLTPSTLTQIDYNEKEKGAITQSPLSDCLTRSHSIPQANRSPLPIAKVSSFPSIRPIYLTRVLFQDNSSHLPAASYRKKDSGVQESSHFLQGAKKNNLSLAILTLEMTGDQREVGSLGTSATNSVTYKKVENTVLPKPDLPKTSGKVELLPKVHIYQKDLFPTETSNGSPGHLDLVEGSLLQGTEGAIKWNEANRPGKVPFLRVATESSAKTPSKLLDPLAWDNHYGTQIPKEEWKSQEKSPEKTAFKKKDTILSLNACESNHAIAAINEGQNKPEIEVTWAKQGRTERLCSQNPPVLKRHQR
T1 sequence (P00451 1668-2351 limits assumed): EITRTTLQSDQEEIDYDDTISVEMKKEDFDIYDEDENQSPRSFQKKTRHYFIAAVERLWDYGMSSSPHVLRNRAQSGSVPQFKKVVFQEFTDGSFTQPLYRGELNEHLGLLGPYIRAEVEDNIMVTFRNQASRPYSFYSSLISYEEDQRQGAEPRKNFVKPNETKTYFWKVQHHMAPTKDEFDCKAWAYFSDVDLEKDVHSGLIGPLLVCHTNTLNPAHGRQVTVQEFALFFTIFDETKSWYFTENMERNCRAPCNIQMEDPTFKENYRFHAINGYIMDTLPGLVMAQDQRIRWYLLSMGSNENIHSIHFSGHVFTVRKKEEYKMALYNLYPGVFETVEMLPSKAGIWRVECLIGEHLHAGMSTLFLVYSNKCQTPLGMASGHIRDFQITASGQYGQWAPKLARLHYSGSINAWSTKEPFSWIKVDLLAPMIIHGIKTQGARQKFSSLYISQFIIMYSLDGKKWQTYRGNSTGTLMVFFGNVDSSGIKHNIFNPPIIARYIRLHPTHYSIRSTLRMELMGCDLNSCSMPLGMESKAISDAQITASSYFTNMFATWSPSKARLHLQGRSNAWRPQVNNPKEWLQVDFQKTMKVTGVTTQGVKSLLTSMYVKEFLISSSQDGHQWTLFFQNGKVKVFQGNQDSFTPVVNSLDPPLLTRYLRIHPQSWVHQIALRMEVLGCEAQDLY
Method: Peptides P1 to P25 were immobilized on the Toyopearl AF-Epoxy-650M resin (Tosoh Biosep) as described by Jungbauer et al. For immobilization, 2.5 mg of each peptide was dissolved in 0.25 mL of the immobilization buffer (0.2 M sodium bicarbonate, pH 10.3), and 0.036 g of the dry resin powder (corresponding to 0.125 mL of swollen resin) was added, followed by incubation of the mixture with gentle rotation for 48 hours. Upon incubation for 48 hours the resin was washed once with immobilization buffer, once with 1 M NaCl and then 3 times with binding buffer, and binding of ^125I-labeled pd-FVIII to the peptide-coated and control resin was tested. The coupling density of each peptide in each of the reported experiments was as mentioned in Table 1. The control 0.25 mL portion of the resin was similarly treated in parallel experiment in the absence of peptide and was subsequently used as a control (designated as Background) in ^125I-pd-FVIII binding experiments. ^125I-pd-FVIII Bound/Background ratios were calculated as the amount of ^125I-pd-FVIII, bound to an immobilized peptide, divided by that bound to uncoated control resin, prepared as described above. This ratio represents a Signal/Noise ratio for the micro-beads assay, since ^125I-pd-FVIII bound to peptide represents the signal value and ^125I-pd-FVIII bound to peptide-uncoated resin represents the background (noise) value.
Plasma-derived (pd-) human Factor VIII (FVIII) was purified from concentrate by immunoaffinity chromatography on an anti-FVIII monoclonal antibody column followed by subsequent concentration of pd-FVIII by ion-exchange chromatography using Resource Q HR5/5 column. To separate FVIII from vWf, concentrate was incubated in 0.35 M NaCl, 0.04 M CaCl2, prior to affinity purification.
Trace amounts of vWf, which are potentially present in pd-FVIII preparation, were removed by passing pd-FVIII preparation through the column with anti-vWf high affinity monoclonal antibody, immobilized at the density 1.4 mg per mL of resin.
Ten μg of purified pd-FVIII were iodinated using lactoperoxidase beads and 0.5 mCi of Na^125I.
The resin with immobilized peptides was washed in the binding buffer (0.01 M Hepes, 0.1 M NaCl, 5 mM CaCl2, 0.01% Tween-80). Subsequently, the resin was diluted in the binding buffer as 1:7 slurry and aliquoted into Eppendorf tubes (40 μl per tube). ^125I-pd-FVIII (100000 cpm in 10 μl) was added to the tubes and the volume of the mixture was adjusted to 100 μl by adding 50 μl of the binding buffer containing 4% BSA to give a 2% final concentration of BSA. After 2 hours of incubation at room temperature on a rotator, the samples were washed 4 times in the binding. After each wash the tubes were centrifuged at 5000 rpm for 1 min in an Eppendorf microcentrifuge, supernatant was discarded, and the resin was re-suspended in the washing buffer, followed by centrifugation under the same conditions. After four washes the tubes with pellet without supernatant were counted for radioactivity. The resin without peptide was processed similarly to account for non-specific pd-FVIII binding to tubes and resin itself, and the radioactivity in this control tube was considered as a background value. Since ^125I-pd-FVIII contains the some fraction damaged during radiolabeling, binding was calculated as a percent of maximal achievable binding, determined in separate experiment with anti-FVIII Mab 8860-coated resin.
All the measurements were performed in duplicates. Each experiment was performed using two independently prepared immobilized peptide samples. The data presented in each figure are the mean values of the four determinations: duplicate determination in the two assays performed with beads on which peptides were independently immobilized on the different days. […]

pd-FVIII [2] = target: T2, pd-FVIII (Homo sapiens, UniProt P00451); assay: Affinity chromatography purification of FVIII on peptide-coated resin column (OD280, one-stage APTT activity); details: P1; FBS-containing conditioned DMEM spiked with FVIII
T2 construct: from tissue; host or cells: human blood plasma (FVIII concentrate)
T2 sequence (P00451 20-1667 limits assumed): as the sequence (P00451 20-1667 limits assumed) above
T2 sequence (P00451 1668-2351 limits assumed): as the sequence (P00451 1668-2351 limits assumed) above

pd-FVIII [3] = target: T2, pd-FVIII; assay: as above; details: P1; Pure fVIII
Method: The peptido-mimetic derivative P22 was immobilized on the Toyopearl resin as described in Example 1. 25 mg of peptide and 360 mg of resin were used. The resulting resin (˜1 ml) was packed in a glass column (Pharmacia-Biotech). The purification procedure was performed using a Waters 650E Advanced Protein Purification System. Buffer A was 0.01 M Hepes, 0.1 M NaCl, 5 mM CaCl2, 0.01% Tween-80 and Buffer B was 0.01 M Hepes, 1 M NaCl, 5 mM CaCl2, 0.01% Tween-80 (pH 6.8). The elution was monitored by a flow-through UV detector (Waters 490 E) by optical density at 280 nm (OD280). The elution fractions were then analyzed for their protein content by determining OD280 and FVIII activity was determined in a one-stage APTT assay using MLA Electra-800 automatic coagulation timer. The samples from elution fractions were analyzed by 10% PAGE followed by silver staining and Western blotting using monoclonal antibodies against FVIII.
FVIII (0.5 mg), previously purified by immunoaffinity and ion-exchange chromatography as described above, was diluted by 0.01 M Hepes, 5 mM CaCl2, 0.01% Tween-80 to a final salt concentration of 0.1 M NaCl. The mixture was applied onto the P22-column, followed by wash with Buffer A, until the OD280 returned to background.
The purification of FVIII was performed from cell-conditioned FBS-containing SF9 media, spiked with FVIII. FVIII (0.5 mg), previously purified by immunoaffinity and ion-exchange chromatography as described above, was mixed with cell-conditioned FBS-containing SF9 media, which was diluted with 0.01 M Hepes, 5 mM CaCl2, 0.01% Tween-80 to a final salt concentration of 0.1 M NaCl. The mixture was applied onto the column, followed by wash with Buffer A, until the OD280 returned to background. The wash with 85% Buffer A 15% Buffer B was performed to elute some of bound contaminating proteins.
Peptide P1 was bonded to the resin as described in Example 1. 25 mg of peptide and 360 mg of resin were used. The resulting resin (˜1 ml) was packed in a glass column (Pharmacia-Biotech). A FVIII containing sample was purified as described with respect to Example 3, the only difference between the two experiments being the absence of a prelusion step with Buffer A in the present experiment.

[4] = Table 1, 125I-pd-FVIII Bound/Background ratio versus uncoated control resin
[5] = Table 1, immobilized on Toyopearl AF-Epoxy-650M, percent of maximal achievable binding (anti-FVIII Mab 8860-coated resin), mean of four determinations

Row | Compound | Binding, rel. to control [1, 4] | % Binding pdFVIII [1, 5] [%] | also measured
1 | O=C(O)CCC(NCCc1c[nH]c2ccccc12)C(=O)NC(Cc1ccc(O)cc1)C(=O)NC(CS)C(=O)O (stereo not shown) [Compound P25] | 22.7 ± 0.8 | 53.7 ± 1.9 | –
2 | Ac-Trp-Glu-Tyr-Cys-NH2 (Ac-WEYC-NH2) [Compound P2] | 18.9 ± 2.0 | 53.6 ± 5.7 | –
3 | ECYYEHWS [scrambled, reference compound] | – | – | % Binding pdFVIII ([1]; Table 2, comparative compound immobilized on Toyopearl AF-Epoxy-650M): 6.5 ± 0.5%; Binding, rel. to control ([1]; Table 2, ratio versus uncoated resin): 4.1 ± 0.3
4 | H-D-Cys-D-Tyr-D-Glu-D-Trp-OH [Compound P7] | 19.8 ± 0.3 | 56.1 ± 0.9 | –
5 | H-Trp-Asp-Tyr-Cys-OH (H-WDYC-OH) [Compound P11] | 24.7 ± 2.7 | 62.8 ± 6.9 | –
6 | H-Trp-Glu-Phe-Cys-OH (H-WEFC-OH) [Compound P8] | 8.7 ± 0.1 | 24.7 ± 0.1 | –
7 | H-Trp-Glu-Tyr(OMe)-Cys-OH [Compound P10] | 19.0 ± 3.0 | 54.1 ± 8.4 | –
8 | H-Trp-Glu-Tyr-Aha-Cys-OH [Compound P5] | 22.2 ± 1.9 | 42.7 ± 2.3 | –
9 | H-Trp-Glu-Tyr-Cys-OH (H-WEYC-OH) [Compound P1] | 20.9 ± 1.7 | 47.6 ± 4.0 | Activity, Elution (pd-FVIII [2]): 66 IU/ml; Activity, Flow-through (pd-FVIII [2]): 6 IU/ml; OD 280, Elution (pd-FVIII [2]): 0.08; OD 280, Flow-through (pd-FVIII [2]): 0.49; Purification, times (pd-FVIII [2]): 13 times; Activity, Elution (pd-FVIII [3]): 552 IU/ml; Activity, Flow-through (pd-FVIII [3]): 9 IU/ml; OD 280, Elution (pd-FVIII [3]): 0.108; OD 280, Flow-through (pd-FVIII [3]): 0.02; Purification, times (pd-FVIII [3]): 2 times
10 | H-Trp-Glu-Tyr-Gly-Aha-Cys-OH [Compound P6] | 15.2 ± 0.7 | 43.1 ± 2.0 | –
11 | H-Trp-Glu-Tyr-Gly-Cys-OH (H-WEYGC-OH) [Compound P4] | 27.4 ± 1.3 | 52.7 ± 2.5 | –
12 | H-Trp-Glu-Tyr-homo-Cys-OH [Compound P3] | 21.9 ± 1.3 | 38.4 ± 2.3 | –
13 | H-WE[1Nal]C-OH [Compound P9] | 23.8 ± 2.2 | 60.9 ± 5.5 | –
14 | H-[1Nal]EYC-OH [Compound P13] | 26.1 ± 2.3 | 66.8 ± 5.9 | –
15 | H-[2Nal]EYC-OH [Compound P14] | 22.7 ± 2.4 | 58.1 ± 6.1 | –
16 | H-[Bpa]EYC-OH [Compound P12] | 22.3 ± 0.5 | 57.0 ± 1.39 | –
17 | IAA-Asp-Tyr-Cys-OH [Compound P16] | 24.7 ± 0.3 | 70.1 ± 0.8 | –
18 | IBA-Asp-Tyr-Cys-OH [Compound P18] | 20.2 ± 2.5 | 57.2 ± 7.2 | –
19 | IBA-Glu-Tyr-Cys-OH [Compound P17] | 24.7 ± 1.5 | 62.7 ± 3.9 | –
20 | IPA-Asp-Tyr-Cys-OH [Compound P20] | 21.4 ± 1.4 | 60.7 ± 4.1 | –
21 | IPA-Glu-Tyr-Cys-OH [Compound P19] | 18.7 ± 1.7 | 53.2 ± 4.9 | –
